# ChEMBL document CHEMBL5338718, “Design and exploration of gut-restricted bifunctional molecule with TGR5 agonistic and DPP4 inhibitory effects for treating ulcerative colitis” (Eur J Med Chem, 2022)
# Activity calls are given as the source filed them. No cut-off for these calls is given here.
# Assays:
# [1] = target: T1, G-protein coupled bile acid receptor 1 (Homo sapiens, UniProt Q8TDU6); assay: Agonist activity at human TGR5 expressed in human HEK293 cells co-expressing CRE-driven luciferase reporter gene assessed as luciferase activity incubated for 5.5 hrs by Steady-Glo based luciferase assay; assay type: functional, cell-based
# T1 sequence (Q8TDU6 whole entry): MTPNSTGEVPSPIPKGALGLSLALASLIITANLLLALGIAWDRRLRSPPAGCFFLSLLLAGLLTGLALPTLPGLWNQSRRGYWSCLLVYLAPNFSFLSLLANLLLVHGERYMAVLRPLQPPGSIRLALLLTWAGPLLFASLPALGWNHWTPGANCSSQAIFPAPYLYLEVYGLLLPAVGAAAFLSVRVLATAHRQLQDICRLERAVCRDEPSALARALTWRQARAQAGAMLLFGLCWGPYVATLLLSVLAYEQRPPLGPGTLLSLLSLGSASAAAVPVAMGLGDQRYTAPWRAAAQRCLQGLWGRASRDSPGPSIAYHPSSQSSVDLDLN
# [2] = target: T2, G-protein coupled bile acid receptor 1 (Mus musculus, UniProt Q80SS6); assay: Agonist activity at mouse TGR5 expressed in human HEK293 cells co-expressing CRE-driven luciferase reporter gene assessed as luciferase activity incubated for 5.5 hrs by Steady-Glo based luciferase assay; assay type: functional, cell-based
# T2 sequence (Q80SS6 whole entry): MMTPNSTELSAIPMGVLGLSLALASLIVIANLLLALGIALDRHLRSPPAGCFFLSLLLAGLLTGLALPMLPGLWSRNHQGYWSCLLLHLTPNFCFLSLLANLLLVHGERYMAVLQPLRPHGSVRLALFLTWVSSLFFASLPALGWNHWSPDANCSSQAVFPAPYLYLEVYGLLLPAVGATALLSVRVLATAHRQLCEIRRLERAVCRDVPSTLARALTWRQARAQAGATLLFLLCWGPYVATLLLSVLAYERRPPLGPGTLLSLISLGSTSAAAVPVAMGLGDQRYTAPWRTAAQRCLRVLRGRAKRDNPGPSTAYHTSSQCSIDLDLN
# Dipeptidyl peptidase 4 = Dipeptidyl peptidase 4 (Mus musculus, UniProt P28843); assay: Inhibition of mouse serum DPP4 assessed as cleavage of substrate by measuring AMC release using Gly-Pro-AMC as substrate by fluorescence based microplate reader assay; assay type: cell-free
# [3] = Water solubility at pH 6.8; assay type: physicochemical
# [4] = Water solubility at pH 7.4; assay type: physicochemical
# [5] = Apparent permeability across apical to basolateral side in human Caco-2 cells at 20 uM and measured upto 95 mins by LC-MS/MS analysis; assay type: ADME, cell-based
# [6] = Apparent permeability across basolateral to apical side in human Caco-2 cells at 20 uM and measured upto 95 mins by LC-MS/MS analysis; assay type: ADME, cell-based
# [7] = Cmax in overnight-fasted ICR mouse ileum at 30 mg/kg, po and measured upto 8 hrs by LC-MS/MS analysis; assay type: ADME, organism-based; design: dose 30 mg/kg, time < 8 hrs, route po
# [8] = Cmax in overnight-fasted ICR mouse plasma at 30 mg/kg, po and measured upto 8 hrs by LC-MS/MS analysis; assay type: ADME, organism-based; design: dose 30 mg/kg, time < 8 hrs, route po
# [9] = Cmax in overnight-fasted ICR mouse Gall bladder at 30 mg/kg, po and measured upto 8 hrs by LC-MS/MS analysis; assay type: ADME, organism-based; design: dose 30 mg/kg, time < 8 hrs, route po
# Mus musculus [10] = assay: In vivo inhibition of DDP4 in ICR mouse assessed as decrease in enzyme activity in serum at 200 mg/kg,po and measured at 2 hrs using Gly-Pro-AMC as substrate by fluorescence based microplate reader assay; assay type: functional, organism-based
# Mus musculus [11] = assay: In vivo inhibition of DDP4 in ICR mouse assessed as decrease in enzyme activity in serum at 200 mg/kg,po and measured at 4 hrs using Gly-Pro-AMC as substrate by fluorescence based microplate reader assay; assay type: functional, organism-based
# Mus musculus [12] = assay: In vivo inhibition of DDP4 in ICR mouse assessed as decrease in enzyme activity in serum at 200 mg/kg,po and measured after 8 hrs using Gly-Pro-AMC as substrate by fluorescence based microplate reader assay; assay type: functional, organism-based
# Mus musculus [13] = assay: In vivo inhibition of DDP4 in ICR mouse assessed as decrease in enzyme activity in ileum at 200 mg/kg,po and measured after 8 hrs using Gly-Pro-AMC as substrate by fluorescence based microplate reader assay; assay type: functional, organism-based
# Mus musculus [14] = assay: In vivo inhibition of DDP4 in ICR mouse assessed as decrease in enzyme activity in ileum at 50 mg/kg,po and measured after 8 hrs using Gly-Pro-AMC as substrate by fluorescence based microplate reader assay; assay type: functional, organism-based
# Mus musculus [15] = assay: In vivo inhibition of DDP4 in ICR mouse assessed as decrease in enzyme activity in ileum at 25 mg/kg,po and measured after 8 hrs using Gly-Pro-AMC as substrate by fluorescence based microplate reader assay; assay type: functional, organism-based
# Mus musculus [16] = assay: In vivo agonist activity at TGR5 in overnight fasted ICR mouse assessed as increase in GLP-1 activity in serum at 100 mg/kg,po preincubated with sitagliptin at 30 mg/kg,po for one hr followed by compound addition and measured after 8 hrs by ELISA; assay type: functional, organism-based
# Mus musculus [17] = assay: Anti-colitis activity against DSS-induced ulcerative colitis BALB/c mouse model assessed as suppression of DSS induced weight loss at 30 mg/kg,po for 10 days; assay type: functional, organism-based; settings: time 10.0 day
# Mus musculus [18] = assay: Anti-colitis activity against DSS-induced ulcerative colitis BALB/c mouse model assessed as suppression of DSS induced diarrhea at 30 mg/kg,po for 10 days; assay type: functional, organism-based; settings: time 10.0 day
# Mus musculus [19] = assay: Anti-colitis activity against DSS-induced ulcerative colitis BALB/c mouse model assessed as suppression of DSS induced fecal occult blood at 30 mg/kg,po for 10 days; assay type: functional, organism-based; settings: time 10.0 day
# Mus musculus [20] = assay: Anti-colitis activity against DSS-induced ulcerative colitis BALB/c mouse model assessed as reduction in body weight loss by measuring DAI score at 30 mg/kg,po and measured after 5 to 10 days; assay type: functional, organism-based; settings: time 5-10 day
# Mus musculus [21] = assay: Anti-colitis activity against DSS-induced ulcerative colitis BALB/c mouse model assessed as reduction in stool softness by measuring DAI score at 30 mg/kg,po and measured after 5 to 10 days; assay type: functional, organism-based; settings: time 5-10 day
# Mus musculus [22] = assay: Anti-colitis activity against DSS-induced ulcerative colitis BALB/c mouse model assessed as reduction in fecal occult blood by measuring DAI score at 30 mg/kg,po and measured after 5 to 10 days; assay type: functional, organism-based; settings: time 5-10 day
# Mus musculus [23] = assay: Anti-colitis activity against DSS-induced ulcerative colitis BALB/c mouse model assessed as recovery of colon length at 30 mg/kg,po for 10 days; assay type: functional, organism-based; settings: time 10.0 day
# Mus musculus [24] = assay: Anti-colitis activity against DSS-induced ulcerative colitis BALB/c mouse model assessed as decrease in inflammatory cell infiltration at 30 mg/kg,po for 10 days by Hematoxylin and eosin staining based microscopy; assay type: functional, organism-based; settings: time 10.0 day
# Mus musculus [25] = assay: Anti-colitis activity against DSS-induced ulcerative colitis BALB/c mouse model assessed as recovery of tissue damage at 30 mg/kg,po for 10 days by Hematoxylin and eosin staining based microscopy; assay type: functional, organism-based; settings: time 10.0 day
# Mus musculus [26] = assay: Anti-colitis activity against DSS-induced ulcerative colitis BALB/c mouse model assessed as decrease in histological score at 30 mg/kg,po for 10 days by Hematoxylin and eosin staining based microscopy; assay type: functional, organism-based; settings: time 10.0 day
# Mus musculus [27] = assay: Induction of gut restriction in overnight fasted ICR mouse assessed as effect on gallbladder-filling by measuring gallbladder volume at 30 to 200 mg/kg, po and measured after 4 hrs by Vernier caliper analysis; assay type: functional, organism-based; settings: dose 30-200 mg/kg
# Mus musculus [28] = assay: Induction of gut restriction in overnight fasted ICR mouse assessed as effect on gallbladder-filling by measuring bile weight at 30 to 200 mg/kg, po and measured after 4 hrs by Vernier caliper analysis; assay type: functional, organism-based; settings: dose 30-200 mg/kg
# Chain of Dipeptidyl peptidase 4 (P28843 whole entry): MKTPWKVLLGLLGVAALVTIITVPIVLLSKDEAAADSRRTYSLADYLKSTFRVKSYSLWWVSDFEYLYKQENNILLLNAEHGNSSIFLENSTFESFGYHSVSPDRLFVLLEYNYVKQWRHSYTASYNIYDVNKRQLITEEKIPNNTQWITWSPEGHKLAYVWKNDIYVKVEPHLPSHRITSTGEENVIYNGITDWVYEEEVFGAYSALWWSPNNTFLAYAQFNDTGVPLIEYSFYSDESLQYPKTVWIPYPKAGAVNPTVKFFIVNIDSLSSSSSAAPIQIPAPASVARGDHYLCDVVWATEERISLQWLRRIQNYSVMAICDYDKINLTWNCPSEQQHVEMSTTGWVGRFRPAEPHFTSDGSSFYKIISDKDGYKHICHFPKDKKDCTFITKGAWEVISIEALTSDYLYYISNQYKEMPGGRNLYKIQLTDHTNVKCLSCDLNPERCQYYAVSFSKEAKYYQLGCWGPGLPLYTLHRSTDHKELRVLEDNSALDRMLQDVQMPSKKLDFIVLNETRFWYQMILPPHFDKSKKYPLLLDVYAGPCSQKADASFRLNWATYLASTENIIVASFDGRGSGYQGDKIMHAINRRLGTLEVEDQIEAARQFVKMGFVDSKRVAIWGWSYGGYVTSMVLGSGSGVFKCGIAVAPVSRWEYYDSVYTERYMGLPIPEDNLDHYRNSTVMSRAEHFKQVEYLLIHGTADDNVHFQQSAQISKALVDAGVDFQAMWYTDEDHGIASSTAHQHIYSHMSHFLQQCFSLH
compound,measurement,setting,value
CC1C(=O)N(CC(=O)N(CCOCCOCCOCCOCCOCCOCCOCCOCCN(CC(=O)O)C(=O)CCc2cc(Cl)c(Oc3ccsc3C(=O)N3CCN(C4CC4)c4ccccc43)cc2Cl)CC(=O)O)CCCN1C(=O)C[C@H](N)Cc1cc(F)c(F)cc1F (mixture of isomers),EC50,[1],48.5 nM
same,EC50,[2],3.4 nM
same,IC50,Dipeptidyl peptidase 4,21.5 nM
same,solubility,[3],> 100 µM
same,solubility,[4],> 100 µM
same,"Papp A→B at 1.583 h, 20 µM",[5],0.01 ×10⁻⁶ cm/s
same,"Papp B→A at 1.583 h, 20 µM",[6],0.01 ×10⁻⁶ cm/s
same,Cmax,[7],11700 ng/mL
same,Cmax,[8],8.3 ng/mL
same,Cmax,[9],820 ng/mL
same,inhibition,Mus musculus [10],inactive
same,inhibition,Mus musculus [11],inactive
same,inhibition,Mus musculus [12],Active
same,inhibition,Mus musculus [13],Active
same,inhibition,Mus musculus [14],Active
same,inhibition,Mus musculus [15],Active
same,Activity,Mus musculus [16],Active
same,Activity,Mus musculus [17],Active
same,Activity,Mus musculus [18],Active
same,Activity,Mus musculus [19],Active
same,Activity,Mus musculus [20],Active
same,Activity,Mus musculus [21],Active
same,Activity,Mus musculus [22],Active
same,Activity,Mus musculus [23],Active
same,Activity,Mus musculus [24],Active
same,Activity,Mus musculus [25],Active
same,Activity,Mus musculus [26],Active
same,Activity,Mus musculus [27],Active
same,Activity,Mus musculus [28],Active
